IC50 data for 51 compounds are collected here from patent publication US11753403B2, “EIF4E inhibitors and uses thereof” (PIC Therapeutics, Inc., priority 2020, dated 2023).

Human eIF4E (aa 28-217) / biotin labeled 4G2 peptide, sequence (P06730 28-217): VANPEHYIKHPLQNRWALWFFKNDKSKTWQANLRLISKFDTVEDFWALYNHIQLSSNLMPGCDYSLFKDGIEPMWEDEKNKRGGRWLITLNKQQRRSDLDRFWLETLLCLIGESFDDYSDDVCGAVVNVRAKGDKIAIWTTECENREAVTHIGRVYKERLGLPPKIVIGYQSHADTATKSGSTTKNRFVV

The assay has as its target Human eIF4E (aa 28-217) / biotin labeled 4G2 peptide (Homo sapiens (Human), UniProt P06730). Kind of assay: Human eIF4E/4G2 binding assay (TR-FRET). Particulars: Human eIF4E/4G2 TR-FRET binding assay; head says IC50, legend says EC50. Here is the method: Example 5. Compound Testing in Human eIF4E/4G2 Binding Assay
Human eIF4E (aa 28-217) with a C-terminal His-tag was expressed in E. coli in inclusion bodies. The protein was solubilized with 8 M urea and purified under denaturing conditions using nickel-charged HisTrap HP columns (GE Healthcare). The purified protein was then refolded by diluting in 20 mM Hepes pH 7.0, 0.5 M NaCl, 1 mM DTT, 1 mM EDTA, 0.5 M arginine plus 6 M urea, and then dialyzing overnight into the same buffer without the urea. The protein was further dialyzed into 20 mM Hepes, pH 6.5, 50 mM NaCl, 1 mM EDTA, 1 mM DTT, and concentrated using Hitrap SP sepharose FF columns (GE Healthcare). The concentrated protein was dialyzed into 20 mM Hepes, pH 7.0, 0.5M NaCl, 5 mM DTT and 10% glycerol, and stored at −80° C. until use.
Test compounds (3.43 mM stock in DMSO) were diluted 2-fold in series in DMSO (10 concentration points). Compound solutions (1.2 μl/well) were added into black 384-well polypropylene microplates (Matrix, Thermal Scientific). Twenty-two microliters per well of Assay Buffer (50 mM NaPi, pH 6.5, 50 mM KCl, 1 mM DTT and 0.5 mg/ml gamma globulin) and eight microliters per well of 82.5 nM purified eIF4E in Assay Buffer were added. The samples were incubated at room temperature (20-23° C.) for 4 hours. Biotin labeled 4G2 peptide (Ac-Lys-Gln-Tyr-Asp-Arg-Glu-Phe-Leu-Leu-Asp-Phe-Gln-Phe-Met-Pro-Lys(Aha-Bio)-NH2, 1.75 μM stock in DMSO) was diluted to 0.14 μM in Assay Buffer (without DTT) and 5 μl/well was added. The samples were incubated at room temperature for 20 min. Five microliters per well of 6.4 nM Eu-streptavidin (Eu-SA, Perkin Elmer) and 80 nM Allophycocyanin (APC)-anti His antibody (Columbia Biosciences) in Assay Buffer (without DTT) were then added and the samples were incubated at room temperature for 20 min.
Assay signals were monitored by reading excitation at 340 nm and emission fluorescence at 615 nm and 665 nm on an Envision reader (Perkin Elmer). Normalized TR-FRET (time-resolved fluorescence resonance energy transfer) assay signal (Rn) was calculated by the formula: Rn=[(A−Ba−C×D)/(D−Bd)]×(Dc−Bd) Where A is the fluorescence intensity of the sample at 665 nm, • D is the fluorescence intensity of the sample at 615 nm, • Ba and Bd are plate backgrounds at 665 nm and 615 nm, respectively, • Dc is the fluorescence intensity of 0.78 nM Eu-SA in the assay buffer at 615 nm The cross-talk factor (C) is determined by the following formula: C=(Ac−Ba)/(Dc−Bd) Where Ac is the fluorescence intensity of 0.78 nM Eu-SA in the assay buffer at 665 nm.
IC50 values were calculated using xLFit program (IDBS). Table 2 below lists EC50 of some compounds, wherein A represents EC50≤1 uM; B represents 1 uM<EC50≤10 uM; and C represents EC50>10 uM.
`CC(C)c1sc(Nc2ncc(C(F)(F)F)cc2C(=O)O)nc1-c1nc2ccccc2s1` [I-320, 2-(4-(benzo[d]thiazol-2-yl)-5-isopropylthiazol-2-ylamino)-5-(trifluoromethyl)nicotinic acid]: the concentration for half-maximal inhibition (IC50) is not above 1000 nM.

In turn, `CC(C)Cc1sc(N(CCC(=O)O)Cc2ccccc2)nc1-c1ccc(Oc2ccccc2)c(Cl)c1` [I-103] had a half-maximal inhibitory concentration (IC50) not above 1000 nM. The result for `CC(C)Cc1sc(N(CCCO)CCC(=O)O)nc1-c1ccc(Cl)c(Cl)c1` [I-70] reads 1000 to 10000 nM; that for `CC(C)Cc1sc(N(CCC(=O)O)Cc2ccccc2)nc1-c1cccc(Cl)c1` [I-79], 1000 to 10000 nM; that for `CC(C)Cc1sc(N(CCC(=O)O)Cc2ccccc2)nc1-c1cc(Cl)c(Cl)c(Cl)c1` [I-111], not above 1000 nM.

With `O=C(O)c1sc(NCC(Cc2ccccc2)C(=O)O)nc1-c1ccc(Cl)c(Cl)c1` (stereo not drawn) [I-183, 2-(2-carboxy-3-phenylpropylamino)-4-(3,4-dichlorophenyl)thiazole-5-carboxylic acid], the IC50 is more than 10000 nM. To `CNC(=O)c1cccc(CC(CNc2nc(-c3ccc(Cl)c(Cl)c3)c(CC(C)C)s2)C(=O)O)c1` (stereo not drawn) [I-169] belongs 1000 to 10000 nM. `O=C(O)C(CNc1nc(-c2ccc(Cl)c(Cl)c2)c(C2CCC2)s1)Cc1ccccc1` (stereo not drawn) [I-178] registered an IC50 of 1000 to 10000 nM. To `O=C(O)C(CCc1ccccc1)CNc1nc(-c2ccc(Cl)c(Cl)c2)c(C2CC2)s1` (stereo not drawn) [I-15] belongs 1000 to 10000 nM; to `O=C(O)C(CNc1nc(-c2ccc(Cl)c(Cl)c2)c(CC(F)(F)F)s1)Cc1ccccc1` (stereo not drawn) [I-184, 2-benzyl-3-(4-(3,4-dichlorophenyl)-5-(2,2,2-trifluoroethyl)thiazol-2-ylamino)propanoic acid], 1000 to 10000 nM; to `CC(C)c1sc(Nc2c(C(=O)O)sc3ccccc23)nc1-c1ccc(Cl)c(C(F)(F)F)c1` [I-281], not above 1000 nM. Turning to `CC(C)c1sc(NCC(Cc2ccccc2)C(=O)O)nc1-c1ccc(Cl)cc1` (stereo not drawn) [I-38], the concentration for half-maximal inhibition (IC50) was 1000 to 10000 nM. To `CC(C)Cc1sc(N(CCC(=O)NCc2ncc[nH]2)Cc2ccccc2)nc1-c1ccc(Cl)c(Cl)c1` [I-195] belongs more than 10000 nM. The result for `CC(C)Cc1sc(N(CCC(=O)O)Cc2ccccc2)nc1-c1ccc(O)cc1` [I-117] reads 1000 to 10000 nM; that for `O=C(O)CCN(Cc1ccccc1)c1nc(-c2ccc(Cl)c(Cl)c2)c(Cn2ccnc2)s1` [I-122], 1000 to 10000 nM. The result for `CC(C)Cc1sc(NCC(N)C(=O)O)nc1-c1ccc(Cl)c(Cl)c1` (stereo not drawn) [I-115, 2-amino-3-(4-(3,4-dichlorophenyl)-5-isobutylthiazol-2-ylamino)propanoic acid] reads more than 10000 nM; that for `CC(C)Cc1sc(Nc2ccc(F)c(C(=O)O)c2)nc1-c1ccc(Cl)c(Cl)c1` [I-209], not above 1000 nM; that for `O=C(O)C(CNc1nc(-c2ccc(Cl)c(Cl)c2)c(C2CC2)s1)Cc1cccc(F)c1` (stereo not drawn) [I-14], 1000 to 10000 nM.

`CC(C)Cc1sc(N(CCC(=O)O)Cc2ccccc2)nc1-c1cc(F)c(F)c(F)c1` [I-81] gave an IC50 of 1000 to 10000 nM.

Compound `CC(C)Cc1sc(Nc2cc(C(=O)O)cc(C(F)(F)F)c2)nc1-c1ccc(Cl)c(Cl)c1` [I-213] displayed a half-inhibitory concentration (IC50) not above 1000 nM. In the case of `CC(C)Cc1sc(Nc2ncccc2C(=O)O)nc1-c1ccc(Cl)c(Cl)c1` [I-233], the IC50 is not above 1000 nM.

Compound `CC(C)c1sc(NCC(Cc2cccc3[nH]ccc23)C(=O)O)nc1-c1ccc(Cl)cc1` (stereo not drawn) [I-44] registered a half-maximal inhibitory concentration (IC50) of 1000 to 10000 nM. To `CC(C)Cc1sc(NCC(Cc2cccc(S(N)(=O)=O)c2)C(=O)O)nc1-c1ccc(Cl)c(Cl)c1` (stereo not drawn) [I-173] belongs 1000 to 10000 nM; to `CC(C)Cc1sc(N(CCC(=O)O)Cc2ccc(O)cc2)nc1-c1ccc(Cl)c(Cl)c1` [I-73], 1000 to 10000 nM; to `CC(C)c1sc(NCC(Cc2cccc3[nH]ccc23)C(=O)O)nc1-c1ccc(Cl)c(Cl)c1` (stereo not drawn) [I-8], 1000 to 10000 nM. The result for `CC(C)Cc1sc(Nc2cc(C(=O)O)ccc2-c2ccccc2)nc1-c1ccc(Cl)c(Cl)c1` [I-255] reads 1000 to 10000 nM; that for `CC(C)Cc1sc(Nc2ncc(-c3cccs3)cc2C(=O)O)nc1-c1ccc(OCCO)c(Cl)c1` [I-331], not above 1000 nM. The result for `CC(C)Cc1sc(N(CCC(=O)O)Cc2ccccc2)nc1-c1ccc(Cl)c(Cl)c1` [I-47, 3-(benzyl(4-(3,4-dichlorophenyl)-5-isobutylthiazol-2-yl)amino)propanoic acid] reads not above 1000 nM; that for `CC(C)Cc1sc(NCC(CCc2ccccc2)C(=O)O)nc1-c1ccc(Cl)c(Cl)c1` (stereo not drawn) [I-23], not above 1000 nM.

In turn, `CC(C)Cc1sc(N2CCN(C)C(C(=O)O)C2)nc1-c1ccc(Cl)c(Cl)c1` (stereo not drawn) [I-86] registered a 50% inhibitory concentration (IC50) of more than 10000 nM.

For the compound `CC(C)Cc1sc(NCC(Cc2cccc3[nH]ccc23)C(=O)O)nc1-c1ccc(Cl)c(Cl)c1` (stereo not drawn) [I-25], the IC50 is not above 1000 nM. To `CC(C)c1sc(NCC(Cc2c[nH]c3ccccc23)C(=O)O)nc1-c1ccc(Cl)cc1` (stereo not drawn) [I-45] belongs 1000 to 10000 nM; to `CC(C)Cc1sc(NCC(Cc2ccc(N(C)C)nc2)C(=O)O)nc1-c1ccc(Cl)c(Cl)c1` (stereo not drawn) [I-154], 1000 to 10000 nM.

In turn, `CC(C)Cc1sc(N(CC(=O)O)Cc2ccccc2)nc1-c1ccc(Cl)c(Cl)c1` [I-59] showed a concentration for half-maximal inhibition (IC50) not above 1000 nM. The result for `O=C(O)c1sc(C2CCCC2)cc1Nc1nc(Cc2ccccc2)c(-c2ccccc2)s1` [I-310] reads not above 1000 nM; that for `CC(C)Cc1sc(N(CCCc2ccccc2)CCC(=O)O)nc1-c1ccc(Cl)c(Cl)c1` [I-96], not above 1000 nM. To `CC(C)c1sc(Nc2ncc(Cc3ccccc3)cc2C(=O)O)nc1-c1ccc(Cl)c(C(F)(F)F)c1` [I-265] belongs not above 1000 nM. To `CC(C)Cc1sc(N(Cc2ccccc2)C(=O)CC(=O)O)nc1-c1ccc(Cl)c(Cl)c1` [I-143, 3-(benzyl(4-(3,4-dichlorophenyl)-5-isobutylthiazol-2-yl)amino)-3-oxopropanoic acid] belongs more than 10000 nM.

For `CC(C)Cc1sc(N(CCC(=O)O)Cc2cccc3[nH]ccc23)nc1-c1ccc(Cl)c(Cl)c1` [I-53, 3-(((1H-indol-4-yl)methyl)(4-(3,4-dichlorophenyl)-5-isobutylthiazol-2-yl)amino)propanoic acid], the IC50 was 1000 to 10000 nM. The result for `CC(C)Cc1sc(Nc2cc(C(=O)O)ccn2)nc1-c1ccc(Cl)c(Cl)c1` [I-222] reads 1000 to 10000 nM; that for `CC(C)Cc1sc(Nc2cc(-c3ccccc3)sc2C(=O)O)nc1-c1ccc(Cl)c(Cl)c1` [I-270], not above 1000 nM.

Consider `CC(C)c1sc(NCC(Cc2ccc3[nH]ccc3c2)C(=O)O)nc1-c1ccc(Cl)cc1` (stereo not drawn) [I-46], for which the IC50 was 1000 to 10000 nM.

In turn, `CC(C)Cc1sc(Nc2cncc(C(=O)O)c2)nc1-c1ccc(Cl)c(Cl)c1` [I-221, 5-(4-(3,4-dichlorophenyl)-5-isobutylthiazol-2-ylamino)nicotinic acid] returned a half-maximal inhibitory concentration (IC50) of 1000 to 10000 nM. The result for `O=C(O)C(CNc1nc(-c2ccc(Cl)c(Cl)c2)c(C2CC2)s1)Cc1ccccc1` (stereo not drawn) [I-11] reads 1000 to 10000 nM. `COc1cc(CC(CNc2nc(-c3ccc(Cl)c(Cl)c3)c(CC(C)C)s2)C(=O)O)ccn1` (stereo not drawn) [I-165]: the IC50 fell in the range of 1000 to 10000 nM. The result for `CC(C)c1sc(Nc2ncc(-c3ccccc3)cc2C(=N)N)nc1-c1ccc(Cl)c(Cl)c1` [I-285] reads more than 10000 nM; that for `O=C(O)CCN(CCc1ccccc1)c1nc(-c2ccc(Cl)c(Cl)c2)c(C2CC2)s1` [I-57], not above 1000 nM. To `O=C(O)c1cccc(-c2nc(Cc3ccc(Cl)c(Cl)c3)cs2)c1` [I-223, 3-(4-(3,4-dichlorobenzyl)thiazol-2-yl)benzoic acid] belongs 1000 to 10000 nM; to `CC(C)Cc1sc(Nc2ccsc2C(=O)NCCN)nc1-c1ccc(Cl)c(Cl)c1` [I-276, N-(2-aminoethyl)-3-(4-(3,4-dichlorophenyl)-5-isobutylthiazol-2-ylamino)thiophene-2-carboxamide], 1000 to 10000 nM. To `CC(C)Cc1sc(-c2ccc(Br)c(C(=O)O)c2)nc1-c1ccc(Cl)c(Cl)c1` [I-224, 2-bromo-5-(4-(3,4-dichlorophenyl)-5-isobutylthiazol-2-yl)benzoic acid] belongs 1000 to 10000 nM. Compound `CC(C)Cc1sc(NCC(Cc2ccncn2)C(=O)O)nc1-c1ccc(Cl)c(Cl)c1` (stereo not drawn) [I-161] came in with a concentration for half-maximal inhibition (IC50) of 1000 to 10000 nM.
